The text below walks through data of ChEMBL document CHEMBL1155184, “Kojic acid-amino acid conjugates as tyrosinase inhibitors” (Bioorg Med Chem Lett, 2009).

The target of the assay is T1, Tyrosinase (Agaricus bisporus, UniProt O42713).
T1 sequence (O42713 whole entry): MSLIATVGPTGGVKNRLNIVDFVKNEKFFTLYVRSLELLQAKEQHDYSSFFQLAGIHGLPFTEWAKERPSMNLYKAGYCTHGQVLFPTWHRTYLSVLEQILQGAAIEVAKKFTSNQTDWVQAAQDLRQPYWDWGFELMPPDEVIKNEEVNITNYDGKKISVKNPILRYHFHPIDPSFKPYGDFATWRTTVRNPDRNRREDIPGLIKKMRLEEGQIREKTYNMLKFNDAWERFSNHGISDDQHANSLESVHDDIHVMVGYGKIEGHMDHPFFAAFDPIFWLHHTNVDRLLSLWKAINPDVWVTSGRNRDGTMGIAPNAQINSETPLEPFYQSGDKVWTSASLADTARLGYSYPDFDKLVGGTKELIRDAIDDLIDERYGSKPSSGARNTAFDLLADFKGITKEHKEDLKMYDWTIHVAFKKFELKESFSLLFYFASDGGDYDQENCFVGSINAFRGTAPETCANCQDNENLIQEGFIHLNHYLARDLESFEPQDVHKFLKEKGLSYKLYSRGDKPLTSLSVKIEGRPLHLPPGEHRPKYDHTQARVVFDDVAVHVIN
Briefly: Inhibition of mushroom tyrosinase assessed as oxidation of L-DOPA.

With `NC(=O)[C@H](Cc1ccccc1)NC(=O)OCc1cc(=O)c(O)co1`, the IC50 amounted to 14.7 µM and the Ki was 11 µM.

As usually defined, the IC50 is the point on the concentration scale where inhibition reaches its midpoint. Usually Ki stands for a measure of affinity in units of concentration, obtained from inhibition or displacement.
